The target in one experiment is KRas G12C (Homo sapiens, UniProt P01116, C118S/C51S/C80L/G12C). The experiment is described as follows: KRas G12C Modification Assay (LCMS detection of covalent adduct). The class given is binding. The conditions noted are these: normalized percent of control; tested at 5 μM concentration for 3 hours. An outline of the steps:
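Covalent modification was read by reverse-phase LC/MS of intact protein after compound exposure, each reaction stopped at its time point with 25 mM acetic acid. Unmodified-protein signal, taken as percent of total, was normalised to untreated protein and reported as POC.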

Experiment [1] concerns NCI-H358 cells (express KRas G12C), Phospho-ERK. The experiment is described as follows: Cellular inhibition of KRas G12C: Phospho-ERK in NCI-H358 cells. The class given is cell-based. The conditions noted are these: pERK(Thr202/Tyr204) normalized with GAPDH, NCI-H358 cells, 3 hours, read-out: IC50. The gist of the method: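 IC50 derived by 4-parameter fit of GAPDH-normalized pERK(Thr202/Tyr204) signal, as percent of DMSO control. Signal came from in-cell immunodetection with infrared secondaries after 3 h compound exposure of KRas G12C NCI-H358 cells at 0.5% DMSO.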

Each structure is given as a SMILES string. Read-outs that look alike come from different tables or passages of the source.

What is called IC50 is the concentration needed to halve the response being measured.

As for `C=CC(=O)N1C[C@H](C)N(c2nc(OC[C@@H]3CCCN3C)nc3c2CCN(c2cccc4ccccc24)C3)C[C@@H]1CC#N` [Example 368, 2-((2S,5S)-1-acryloyl-5-methyl-4-(2-(((S)-1-methylpyrrolidin-2-yl)methoxy)-7-(naphthalen-1-yl)-5,6,7,8-tetrahydropyrido[3,4-d]pyrimidin-4-yl)piperazin-2-yl)acetonitrile], the POC result on KRas G12C is “C (“C”>50% POC)”. For the same compound, in experiment [1] (Homo sapiens, NCI-H358, 3 h), the 50% inhibitory concentration (IC50) is more than 1000 nM.

In the case of `C=CC(=O)N1CCN(c2nc(OCCCN3C[C@@H]4C[C@H]3CO4)nc3c2CCN(c2cccc4cccc(C)c24)C3)C[C@@H]1CC#N` [Example 369, 2-((S)-4-(2-(3-((1 S,4S)-2-oxa-5-azabicyclo[2.2.1]heptan-5-yl)propoxy)-7-(8-methylnaphthalen-1-yl)-5,6,7,8-tetrahydropyrido[3,4-d]pyrimidin-4-yl)-1-acryloylpiperazin-2-yl)acetonitrile], the POC entry at KRas G12C was “C (“C”>50% POC)”. Also, the 50% inhibitory concentration (IC50) in experiment [1] (Homo sapiens, NCI-H358, 3 h) lay within 0.1 to 1000 nM.

With `C=CC(=O)N1CCN(c2nc(OCCCN3CCOCC3)nc3c2CCN(c2cccc4cccc(C)c24)C3)C[C@@H]1CC#N` [Example 370, (S)-2-(1-acryloyl-4-(7-(8-methylnaphthalen-1-yl)-2-(3-morpholinopropoxy)-5,6,7,8-tetrahydropyrido[3,4-d]pyrimidin-4-yl)piperazin-2-yl)acetonitrile], on KRas G12C, the POC entry was “C (“C”>50% POC)”. Also, in experiment [1] (Homo sapiens, NCI-H358, 3 h), the IC50 fell in the range of 0.1 to 1000 nM.

On to `C=CC(=O)N1CCN(c2nc(OCCC(=O)N(C)C)nc3c2CCN(c2cccc4cccc(C)c24)C3)C[C@@H]1CC#N` [Example 371, (S)-3-((4-(4-acryloyl-3-(cyanomethyl)piperazin-1-yl)-7-(8-methylnaphthalen-1-yl)-5,6,7,8-tetrahydropyrido[3,4-d]pyrimidin-2-yl)oxy)-N,N-dimethylpropanamide], for which the POC result at KRas G12C was “C (“C”>50% POC)”. Also, the IC50 in experiment [1] (Homo sapiens, NCI-H358, 3 h) was in the range of 0.1 to 1000 nM.

Turning to `C/C=C/C(=O)N1CCN(c2nc(OC[C@@H]3CCCN3C)nc3c2CCN(c2cccc4cccc(C)c24)C3)C[C@@H]1CC#N` [Example 372, 2-((S)-1-((E)-but-2-enoyl)-4-(7-(8-methylnaphthalen-1-yl)-2-(((S)-1-methylpyrrolidin-2-yl)methoxy)-5,6,7,8-tetrahydropyrido[3,4-d]pyrimidin-4-yl)piperazin-2-yl)acetonitrile], at KRas G12C, the POC entry is “C (“C”>50% POC)”. For the same compound, the IC50 in experiment [1] (Homo sapiens, NCI-H358, 3 h) is 0.1 to 1000 nM.

`C=CC(=O)N1CCN(c2nc(OC[C@@H]3CCCN3C)nc3c2CCN(c2ncccc2C(F)(F)F)C3)CC1CC#N` (stereo partly drawn) [Example 373, 2-(1-acryloyl-4-(2-(((S)-1-methylpyrrolidin-2-yl)methoxy)-7-(3-(trifluoromethyl)pyridin-2-yl)-5,6,7,8-tetrahydropyrido[3,4-d]pyrimidin-4-yl)piperazin-2-yl)acetonitrile]: the POC entry at KRas G12C is listed as “C (“C”>50% POC)”. The half-inhibitory concentration (IC50) in experiment [1] (Homo sapiens, NCI-H358, 3 h) was more than 1000 nM.

For `C=CC(=O)N1CCN(c2nc(OC[C@@H]3CCCN3C)nc3c2CCN(c2ccccc2CC(F)(F)F)C3)CC1CC#N` (stereo partly drawn) [Example 374, 2-(1-acryloyl-4-(2-(((S)-1-methylpyrrolidin-2-yl)methoxy)-7-(2-(2,2,2-trifluoroethyl)phenyl)-5,6,7,8-tetrahydropyrido[3,4-d]pyrimidin-4-yl)piperazin-2-yl)acetonitrile], the POC entry on KRas G12C is “C (“C”>50% POC)”. Also, in experiment [1], the IC50 is more than 1000 nM.

`CC#CC(=O)N1CCN(c2nc(OC[C@@H]3CCCN3C)nc3c2CCN(c2cccc4ccccc24)C3)CC1CC#N` (stereo partly drawn) [Example 376, 2-(1-(but-2-ynoyl)-4-(2-(((S)-1-methylpyrrolidin-2-yl)methoxy)-7-(naphthalen-1-yl)-5,6,7,8-tetrahydropyrido[3,4-d]pyrimidin-4-yl)piperazin-2-yl)acetonitrile 2,2,2-trifluoroacetate]: the POC entry at KRas G12C is listed as “C (“C”>50% POC)”. For the same compound, the half-inhibitory concentration (IC50) in experiment [1] (Homo sapiens, NCI-H358, 3 h) was 0.1 to 1000 nM.

Take `C=CC(=O)N1CCN(c2nc(OC[C@@H]3CCCCN3C)nc3c2CCN(c2cccc4ccccc24)C3)C[C@@H]1CC#N` [Example 377, 2-((S)-1-acryloyl-4-(2-(((S)-1-methylpiperidin-2-yl)methoxy)-7-(naphthalen-1-yl)-5,6,7,8-tetrahydropyrido[3,4-d]pyrimidin-4-yl)piperazin-2-yl)acetonitrile]: the POC entry at KRas G12C is “C (“C”>50% POC)”. The IC50 in experiment [1] (Homo sapiens, NCI-H358, 3 h) is 0.1 to 1000 nM.

For `C=CC(=O)N1C[C@@H](C)N(c2nc(OC[C@@H]3CCCN3C)nc3c2CCN(c2cccc4ccccc24)C3)C[C@@H]1CC#N` [Example 378, 2-((2S,5R)-1-acryloyl-5-methyl-4-(2-(((S)-1-methylpyrrolidin-2-yl)methoxy)-7-(naphthalen-1-yl)-5,6,7,8-tetrahydropyrido[3,4-d]pyrimidin-4-yl)piperazin-2-yl)acetonitrile], the POC result at KRas G12C is listed as “C (“C”>50% POC)”. In addition, the IC50 in experiment [1] (Homo sapiens, NCI-H358, 3 h) lay within 0.1 to 1000 nM.

Turning to `C=CC(=O)N1CCN(c2nc(OC[C@@H]3CCCN3C)nc3c2CCN(c2ccccc2C(F)(F)F)C3)C[C@@H]1CC#N` [Example 379, 2-((S)-1-acryloyl-4-(2-(((S)-1-methylpyrrolidin-2-yl)methoxy)-7-(2-(trifluoromethyl)phenyl)-5,6,7,8-tetrahydropyrido[3,4-d]pyrimidin-4-yl)piperazin-2-yl)acetonitrile], on KRas G12C, the POC result is on record as “C (“C”>50% POC)”. Besides, in experiment [1], the half-maximal inhibitory concentration (IC50) is 0.1 to 1000 nM.

As to `C=CC(=O)N1CCN(c2nc(OC[C@@H]3CCCN3CCOC)nc3c2CCN(c2cccc4ccccc24)C3)CC1CC#N` (stereo partly drawn) [Example 380, 2-(1-acryloyl-4-(2-(((S)-1-(2-methoxyethyl)pyrrolidin-2-yl)methoxy)-7-(naphthalen-1-yl)-5,6,7,8-tetrahydropyrido[3,4-d]pyrimidin-4-yl)piperazin-2-yl)acetonitrile], the POC result at KRas G12C is listed as “C (“C”>50% POC)”. Moreover, the half-maximal inhibitory concentration (IC50) in experiment [1] is 0.1 to 1000 nM.

In the case of `C=CC(=O)N1CCN(c2nc(OC[C@@H]3C[C@@H](OC)CN3C)nc3c2CCN(c2cccc4ccccc24)C3)CC1CC#N` (stereo partly drawn) [Example 381, 2-(1-acryloyl-4-(2-(((2S,4R)-4-methoxy-1-methylpyrrolidin-2-yl)methoxy)-7-(naphthalen-1-yl)-5,6,7,8-tetrahydropyrido[3,4-d]pyrimidin-4-yl)piperazin-2-yl)acetonitrile], the POC result at KRas G12C is listed as “C (“C”>50% POC)”. Moreover, the IC50 in experiment [1] was in the range of 0.1 to 1000 nM.

`C=CC(=O)N1CCN(c2nc(OC[C@@H]3CCCN3C)nc3c2CCN(c2cncc(F)c2C(F)(F)F)C3)C[C@@H]1CC#N` [Example 383, 2-((S)-1-acryloyl-4-(7-(5-fluoro-4-(trifluoromethyl)pyridin-3-yl)-2-(((S)-1-methylpyrrolidin-2-yl)methoxy)-5,6,7,8-tetrahydropyrido[3,4-d]pyrimidin-4-yl)piperazin-2-yl)acetonitrile]: at KRas G12C, the POC entry is “C (“C”>50% POC)”. In experiment [1] (Homo sapiens, NCI-H358, 3 h), the half-maximal inhibitory concentration (IC50) lay within 0.1 to 1000 nM.

As for `C=CC(=O)N1CCN(c2nc(OC[C@@H]3C[C@@H](F)CN3C)nc3c2CCN(c2cncc(F)c2C(F)(F)F)C3)C[C@@H]1CC#N` [Example 384, 2-((S)-1-acryloyl-4-(2-(((2S,4R)-4-fluoro-1-methylpyrrolidin-2-yl)methoxy)-7-(5-fluoro-4-(trifluoromethyl)pyridin-3-yl)-5,6,7,8-tetrahydropyrido[3,4-d]pyrimidin-4-yl)piperazin-2-yl)acetonitrile], the POC entry on KRas G12C is recorded as “C (“C”>50% POC)”. For the same compound, the IC50 in experiment [1] (Homo sapiens) was 0.1 to 1000 nM.

In the case of `C=CC(=O)N1CCN(c2nc(OC[C@@H]3CCCN3C)nc3c2CCN(c2cncc(Cl)c2C(F)(F)F)C3)C[C@@H]1CC#N` [Example 385, 2-((S)-1-acryloyl-4-(7-(5-chloro-4-(trifluoromethyl)pyridin-3-yl)-2-(((S)-1-methylpyrrolidin-2-yl)methoxy)-5,6,7,8-tetrahydropyrido[3,4-d]pyrimidin-4-yl)piperazin-2-yl)acetonitrile], the POC entry at KRas G12C is given as “C (“C”>50% POC)”. The concentration for half-maximal inhibition (IC50) in experiment [1] (Homo sapiens, NCI-H358, 3 h) was 0.1 to 1000 nM.

Turning to `C=CC(=O)N1CCN(c2nc(OC[C@@H]3C[C@@H](F)CN3C(C)C)nc3c2CCN(c2cncc(F)c2C(F)(F)F)C3)C[C@@H]1CC#N` [Example 386, 2-((S)-1-acryloyl-4-(2-(((2S,4R)-4-fluoro-1-isopropylpyrrolidin-2-yl)methoxy)-7-(5-fluoro-4-(trifluoromethyl)pyridin-3-yl)-5,6,7,8-tetrahydropyrido[3,4-d]pyrimidin-4-yl)piperazin-2-yl)acetonitrile], the POC result at KRas G12C is given as “C (“C”>50% POC)”. In experiment [1] (Homo sapiens), the 50% inhibitory concentration (IC50) fell in the range of 0.1 to 1000 nM.

For the compound `C=CC(=O)N1CCN(c2nc(OC[C@@H]3CCCN3C)nc3c2CCN(c2cncc(Cl)c2C)C3)C[C@@H]1CC#N` [Example 387, 2-((S)-1-acryloyl-4-(7-(5-chloro-4-methylpyridin-3-yl)-2-(((S)-1-methylpyrrolidin-2-yl)methoxy)-5,6,7,8-tetrahydropyrido[3,4-d]pyrimidin-4-yl)piperazin-2-yl)acetonitrile], at KRas G12C, the POC entry is “C (“C”>50% POC)”. The IC50 in experiment [1] (Homo sapiens, NCI-H358, 3 h) is 0.1 to 1000 nM.

Regarding `C=CC(=O)N1CCN(c2nc(OC[C@@H]3CCCN3C)nc3c2CCN(c2cccc(F)c2C)C3)C[C@@H]1CC#N` [Example 388, 2-((S)-1-acryloyl-4-(7-(3-fluoro-2-methylphenyl)-2-(((S)-1-methylpyrrolidin-2-yl)methoxy)-5,6,7,8-tetrahydropyrido[3,4-d]pyrimidin-4-yl)piperazin-2-yl)acetonitrile], the POC result on KRas G12C is recorded as “C (“C”>50% POC)”. For the same compound, in experiment [1] (Homo sapiens, NCI-H358, 3 h), the concentration for half-maximal inhibition (IC50) fell in the range of 0.1 to 1000 nM.
